These results are taken from PMC4965148 (PLoS ONE, 2016).

Several values for one entry are separate records, joined by “and”; a condition that tells them apart may be missing. Identical values can stand only once. Like-named read-outs stand apart in the source and are kept apart here.

One assay has as its target T1, rat α4β2 nAChR (Rattus norvegicus, UniProt P09483+P12390).
T1 construct: expressed in transfected cells; host or cells: HEK293 (made by Bristol-Myers Squibb)
Briefly: Ca2+ flux (FLIPR) agonist/antagonist assay. The settings on record: FLIPR agonist mode; read-out: agonist EC50 at α4β2 nAChR. Type of assay: cell-based. On the technique in general: Calcium assays in cells follow changes in intracellular calcium, usually with a dye or a luminescent sensor.

A further assay concerns the target T2, HEK293/Human 5-HT3A (Homo sapiens, UniProt P46098).
T2 construct: expressed in transfected cells; host or cells: HEK293 (made by Bristol-Myers Squibb)
T2 sequence (P46098 24-478): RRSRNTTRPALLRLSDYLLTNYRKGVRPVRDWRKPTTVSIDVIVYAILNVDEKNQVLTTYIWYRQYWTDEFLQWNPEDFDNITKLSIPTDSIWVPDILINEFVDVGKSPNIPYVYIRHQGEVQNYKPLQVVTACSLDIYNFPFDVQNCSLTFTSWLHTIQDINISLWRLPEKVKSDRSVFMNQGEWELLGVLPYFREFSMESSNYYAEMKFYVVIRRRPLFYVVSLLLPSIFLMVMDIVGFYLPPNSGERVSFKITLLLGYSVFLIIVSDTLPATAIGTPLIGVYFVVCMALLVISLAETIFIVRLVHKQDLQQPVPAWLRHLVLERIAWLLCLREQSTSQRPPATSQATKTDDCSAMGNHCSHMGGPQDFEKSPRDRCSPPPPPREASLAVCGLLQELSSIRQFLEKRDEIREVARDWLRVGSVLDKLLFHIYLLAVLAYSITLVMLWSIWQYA
Briefly: Ca2+ flux (FLIPR) 5-HT3A antagonist assay. The assay is classed as cell-based. Here is the method:
Functional activity was examined using Ca^2+-sensitive, dye-based, microfluorometric assays read on the FLIPR Tetra plate reader platform (Molecular Devices, CA, USA). Cells were plated in 384-well black, clear-bottomed Greiner poly-D-lysine coated plates at a density of ~25 K cells/well and incubated at 29°C for 48 h. Prior to assay, media contents were removed and cells incubated in assay buffer containing 5μM final Fluo-4 dye for 90 min. For nAChR assays, the dye-loading buffer was HBSS (#14175 Life Technologies) supplemented with 20 mM HEPES, 0.5 mM CaCl2, 1 mM MgCl2 and 10 μM atropine (final concentration). Test compounds were solubilized in DMSO and serially diluted in NUNC 384-well plates prior to addition of assay buffer (5.3 mM KCl + 140 mM NaCl + 20 mM Hepes + 25 mM CaCl2 + 1 mM MgCl2 + 10 μM atropine final concentration). Compounds diluted in assay buffer were added to the assay plate by the FLIPR and read for approximately 2 min. […] For 5-HT3A antagonist studies, the dye loading and compound diluent buffer was HBSS (#14025 Life Technologies) supplemented with 20 mM HEPES (final concentration) and the concentration of 5-HT used in the assay was 2 μM. Offline transformation of concentration response data was done using a 4 parameter logistic fit using a Bristol-Myers Squibb proprietary informatics software suite.

For a further assay, the target named is T3, rat α1β1δε nAChR (Rattus norvegicus, UniProt P09660+P25108+P25109+P25110).
T3 construct: expressed in transfected cells; host or cells: HEK293 (made by Bristol-Myers Squibb)
Briefly: Ca2+ flux (FLIPR) agonist/antagonist assay. Type of assay: cell-based. The settings on record: FLIPR agonist mode; read-out: agonist EC50 at α1β1δε nAChR.

The target of a further assay is T4, rat α3β4 nAChR (Rattus norvegicus, UniProt P04757+P12392).
T4 construct: expressed in transfected cells; host or cells: HEK293 (made by Bristol-Myers Squibb)
The assay can be described thus: Ca2+ flux (FLIPR) agonist/antagonist assay. Type of assay: cell-based. The settings on record: FLIPR agonist mode; read-out: agonist EC50 at α3β4 nAChR.

The target of another assay is HEK293/Human α7 nAChR (Homo sapiens, UniProt P36544). The assay can be described thus: [3H]-A-585539 filtration binding. On the set-up: expressed in transfected cells.
The target in the next assay is α7 nAChR. Conditions: read-out: reported Ki; cited from earlier work.
For a further assay, the target named is T5, human 5-HT3A receptors (Homo sapiens, UniProt P46098).
T5 sequence (P46098 24-478): T2 sequence (P46098 24-478)
Briefly: biochemical.

Assay [1] deals with T6, HEK293/human α7 nAChR cells (Homo sapiens, UniProt P36544).
T6 construct: expressed in transfected cells
Briefly: Whole cell voltage clamp electrophysiology. Conditions: for Net Charge (Current Area) normalized to 300 µM ACh / Peak Current normalized to 3 mM ACh: individual cells. Type of assay: cell-based.
Experimental: Whole-cell voltage clamp studies were conducted on HEK293/rat α7 or HEK293/human α7 nAChR cells. […] Atropine (1 μM) was included in the bathing solution. […] Cells were voltage clamped at a holding potential of -90 mV. Using the Dynaflow microfluidic perfusion system (Cellectricon; flow 26 μl/min) responses to a 300 ms application of ACh or α7 nAChR agonists were measured. Currents were filtered at 2 kHz and sampled at 10 kHz using an EPC-9 amplifier and HEKA Pulse/Patchmaster software. […] The peak current amplitude and net charge crossing the membrane (i.e. the area under the current response curve) induced by agonist application were measured using Clampfit (pClamp Suite) and normalized to the maximal response induced by ACh (3 mM ACh for peak current amplitude and 300 μM ACh for net charge).

Sequence of HEK293/Human α7 nAChR (P36544 23-502): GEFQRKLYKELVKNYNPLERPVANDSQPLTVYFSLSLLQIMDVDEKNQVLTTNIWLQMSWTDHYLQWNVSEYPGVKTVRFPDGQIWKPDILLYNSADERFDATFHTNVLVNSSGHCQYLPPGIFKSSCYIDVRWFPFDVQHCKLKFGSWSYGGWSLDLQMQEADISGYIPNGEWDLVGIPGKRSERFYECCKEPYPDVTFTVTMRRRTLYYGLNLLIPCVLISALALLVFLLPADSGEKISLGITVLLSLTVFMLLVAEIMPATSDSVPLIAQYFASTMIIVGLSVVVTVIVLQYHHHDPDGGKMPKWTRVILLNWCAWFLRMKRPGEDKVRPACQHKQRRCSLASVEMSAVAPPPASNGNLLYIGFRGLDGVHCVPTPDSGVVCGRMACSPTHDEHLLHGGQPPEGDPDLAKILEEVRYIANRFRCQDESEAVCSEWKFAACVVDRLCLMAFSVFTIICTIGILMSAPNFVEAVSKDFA
T6 sequence (P36544 23-502): as above
T3 sequence (P25108 21-457): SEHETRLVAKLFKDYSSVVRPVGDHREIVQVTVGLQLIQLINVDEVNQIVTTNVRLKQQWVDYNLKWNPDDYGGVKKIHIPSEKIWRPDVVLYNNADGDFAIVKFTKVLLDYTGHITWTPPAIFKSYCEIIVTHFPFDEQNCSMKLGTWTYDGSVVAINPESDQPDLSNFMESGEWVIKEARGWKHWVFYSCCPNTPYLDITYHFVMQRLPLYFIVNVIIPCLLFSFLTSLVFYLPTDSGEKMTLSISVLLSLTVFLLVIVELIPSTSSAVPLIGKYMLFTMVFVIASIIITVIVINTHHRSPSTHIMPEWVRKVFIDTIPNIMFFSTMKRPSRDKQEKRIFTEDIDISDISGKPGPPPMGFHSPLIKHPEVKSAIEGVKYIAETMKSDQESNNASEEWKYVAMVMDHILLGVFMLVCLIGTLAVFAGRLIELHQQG
T3 sequence (P25109 24-501): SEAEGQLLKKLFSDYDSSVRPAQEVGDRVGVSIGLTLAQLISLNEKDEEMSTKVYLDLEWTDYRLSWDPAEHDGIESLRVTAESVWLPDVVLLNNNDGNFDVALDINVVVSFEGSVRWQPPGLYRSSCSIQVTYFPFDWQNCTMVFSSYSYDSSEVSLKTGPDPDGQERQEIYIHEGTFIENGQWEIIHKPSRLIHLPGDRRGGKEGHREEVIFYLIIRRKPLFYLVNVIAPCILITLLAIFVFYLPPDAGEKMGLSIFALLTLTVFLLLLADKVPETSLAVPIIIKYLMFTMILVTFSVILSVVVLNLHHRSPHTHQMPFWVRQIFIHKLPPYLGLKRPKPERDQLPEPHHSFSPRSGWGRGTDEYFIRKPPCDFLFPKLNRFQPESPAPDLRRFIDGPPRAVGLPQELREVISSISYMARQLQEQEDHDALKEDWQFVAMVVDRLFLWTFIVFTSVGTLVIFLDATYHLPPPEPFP
T3 sequence (P25110 22-517): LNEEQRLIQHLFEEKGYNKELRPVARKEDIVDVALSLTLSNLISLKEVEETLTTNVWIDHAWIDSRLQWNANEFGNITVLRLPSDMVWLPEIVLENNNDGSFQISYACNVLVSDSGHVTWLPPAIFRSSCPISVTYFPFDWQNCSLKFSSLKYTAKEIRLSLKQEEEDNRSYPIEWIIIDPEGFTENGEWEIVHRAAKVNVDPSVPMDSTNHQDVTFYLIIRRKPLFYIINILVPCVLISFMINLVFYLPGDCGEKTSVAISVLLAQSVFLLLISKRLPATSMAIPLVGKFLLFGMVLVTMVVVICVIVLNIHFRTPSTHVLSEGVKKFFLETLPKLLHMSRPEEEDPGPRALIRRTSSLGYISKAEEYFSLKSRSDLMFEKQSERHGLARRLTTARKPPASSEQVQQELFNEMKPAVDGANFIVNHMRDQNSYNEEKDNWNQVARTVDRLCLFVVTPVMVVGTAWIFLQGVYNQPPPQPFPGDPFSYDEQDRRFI
T3 sequence (P09660 21-494): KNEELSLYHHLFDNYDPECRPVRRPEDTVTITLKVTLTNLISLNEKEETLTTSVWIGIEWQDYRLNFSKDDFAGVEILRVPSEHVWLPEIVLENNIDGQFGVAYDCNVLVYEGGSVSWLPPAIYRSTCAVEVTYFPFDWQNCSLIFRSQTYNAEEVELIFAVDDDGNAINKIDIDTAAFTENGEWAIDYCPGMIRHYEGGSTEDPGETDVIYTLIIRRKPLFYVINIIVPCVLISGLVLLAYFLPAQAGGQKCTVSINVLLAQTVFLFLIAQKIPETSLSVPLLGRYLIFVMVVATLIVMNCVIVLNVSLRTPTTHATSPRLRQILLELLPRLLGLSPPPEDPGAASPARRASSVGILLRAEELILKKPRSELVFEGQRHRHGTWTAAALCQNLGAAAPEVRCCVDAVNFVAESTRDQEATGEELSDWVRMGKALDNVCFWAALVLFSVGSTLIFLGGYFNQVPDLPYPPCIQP
T1 sequence (P09483 31-630): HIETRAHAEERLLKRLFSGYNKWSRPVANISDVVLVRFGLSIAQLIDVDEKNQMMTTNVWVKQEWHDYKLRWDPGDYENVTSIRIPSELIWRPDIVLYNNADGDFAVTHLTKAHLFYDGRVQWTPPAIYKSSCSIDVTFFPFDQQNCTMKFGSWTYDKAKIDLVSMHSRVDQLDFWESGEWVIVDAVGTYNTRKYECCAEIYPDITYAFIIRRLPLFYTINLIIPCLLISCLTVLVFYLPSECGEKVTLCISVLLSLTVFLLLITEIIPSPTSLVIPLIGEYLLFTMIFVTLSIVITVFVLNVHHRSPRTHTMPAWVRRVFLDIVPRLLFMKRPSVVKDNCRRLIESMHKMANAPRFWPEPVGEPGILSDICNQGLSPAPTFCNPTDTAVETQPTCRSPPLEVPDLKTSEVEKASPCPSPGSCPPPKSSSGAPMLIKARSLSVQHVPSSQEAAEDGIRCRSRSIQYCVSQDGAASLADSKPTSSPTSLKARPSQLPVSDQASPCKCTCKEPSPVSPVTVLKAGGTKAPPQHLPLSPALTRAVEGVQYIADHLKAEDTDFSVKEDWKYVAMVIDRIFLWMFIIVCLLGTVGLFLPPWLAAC
T1 sequence (P12390 25-500): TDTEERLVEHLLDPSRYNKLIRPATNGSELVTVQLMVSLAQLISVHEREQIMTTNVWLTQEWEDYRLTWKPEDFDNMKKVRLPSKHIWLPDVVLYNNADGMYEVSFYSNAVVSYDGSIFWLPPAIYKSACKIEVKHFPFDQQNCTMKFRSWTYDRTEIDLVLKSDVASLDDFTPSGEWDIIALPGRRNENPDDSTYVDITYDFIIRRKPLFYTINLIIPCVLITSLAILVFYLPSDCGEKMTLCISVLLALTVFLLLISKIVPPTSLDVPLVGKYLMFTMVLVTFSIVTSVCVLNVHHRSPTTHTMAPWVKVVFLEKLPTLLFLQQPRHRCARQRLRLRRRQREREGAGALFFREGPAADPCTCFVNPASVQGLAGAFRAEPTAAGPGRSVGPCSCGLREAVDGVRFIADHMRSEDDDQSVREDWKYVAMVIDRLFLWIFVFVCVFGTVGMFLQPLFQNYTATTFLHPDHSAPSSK
T4 sequence (P04757 26-499): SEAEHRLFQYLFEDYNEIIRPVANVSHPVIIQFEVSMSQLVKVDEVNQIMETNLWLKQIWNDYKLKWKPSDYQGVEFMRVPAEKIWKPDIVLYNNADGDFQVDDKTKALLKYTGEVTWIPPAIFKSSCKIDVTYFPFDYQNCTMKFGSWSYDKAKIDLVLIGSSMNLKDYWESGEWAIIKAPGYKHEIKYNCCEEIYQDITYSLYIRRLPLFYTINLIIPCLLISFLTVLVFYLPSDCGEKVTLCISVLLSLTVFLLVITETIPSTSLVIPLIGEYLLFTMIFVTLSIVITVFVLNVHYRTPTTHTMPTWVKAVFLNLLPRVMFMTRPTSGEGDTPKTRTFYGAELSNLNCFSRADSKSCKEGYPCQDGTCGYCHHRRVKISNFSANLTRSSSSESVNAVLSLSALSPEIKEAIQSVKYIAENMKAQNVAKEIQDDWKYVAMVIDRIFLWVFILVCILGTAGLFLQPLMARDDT
T4 sequence (P12392 21-495): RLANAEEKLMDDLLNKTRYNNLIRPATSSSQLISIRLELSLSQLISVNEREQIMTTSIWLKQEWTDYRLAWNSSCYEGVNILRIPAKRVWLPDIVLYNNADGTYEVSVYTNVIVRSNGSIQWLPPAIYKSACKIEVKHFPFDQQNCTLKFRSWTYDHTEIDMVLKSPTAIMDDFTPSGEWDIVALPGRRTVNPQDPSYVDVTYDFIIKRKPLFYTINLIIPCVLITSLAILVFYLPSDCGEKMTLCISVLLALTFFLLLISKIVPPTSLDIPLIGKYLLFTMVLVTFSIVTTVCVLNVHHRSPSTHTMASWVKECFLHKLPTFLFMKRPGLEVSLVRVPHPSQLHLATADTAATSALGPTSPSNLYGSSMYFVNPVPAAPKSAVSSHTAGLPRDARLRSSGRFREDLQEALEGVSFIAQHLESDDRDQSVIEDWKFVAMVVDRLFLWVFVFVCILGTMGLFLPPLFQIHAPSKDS

For orientation: EC50 means the concentration giving half of the maximal effect. With `Cl.O=C(N[C@H]1CN2CCC1CC2)c1ccc(Cl)cc1` [PNU-282987, N-(3R)-1-azabicyclo[2.2.2]oct-3-yl-4-chloro-benzamide hydrochloride], the EC50 at rat α4β2 nAChR, at rat α1β1δε nAChR and at rat α3β4 nAChR was over 100000 nM each time. At HEK293/Human 5-HT3A (FLIPR), the “Ratio (5-HT3A IC50 / α7 nAChR EC50; functional selectivity)” value turned out to be 264. Also, the IC50 is 24900 nM at HEK293/Human 5-HT3A (HEK293/Human 5-HT3A Mean ± SD IC50, Ca2+ flux (FLIPR), antagonism of 2 μM 5-HT); 32100 nM and 23600 nM and 6350 nM and 38400 nM and 24100 nM against HEK293/Human 5-HT3A (Human 5-HT3A IC50 values (individual), FLIPR, individual determinations).
With `C[N+]1(C)CC2CC1CN2c1ccc(-c2ccccc2)nn1` (stereo not shown) [[^3H]-A-585539, ^3H-2,2-dimethyl-5-(6-phenyl-3-pyridazinyl)-5-aza-2-azoniabicyclo[2.2.1]heptane iodide], at HEK293/Human α7 nAChR (recombinant human α7 nAChR, n = 2, read-out: mean Kd, saturation binding), the Kd worked out at 0.656 nM.
Consider `O=C(N[C@H]1CN2CCC1CC2)c1cc2cccc(Cl)c2s1` [EVP-6124, (R)-7-chloro-N-(quinuclidin-3-yl)benzo[b]thiophene-2-carboxamide, reference compound], for which the EC50 on rat α4β2 nAChR was over 100000 nM; on rat α1β1δε nAChR, over 100000 nM; on rat α3β4 nAChR, over 100000 nM; in assay [1] (Human, read-out: Mean ± SEM Net Charge EC50) it was 70 ± 20 nM. In addition, the Ki at α7 nAChR was 10 nM; at HEK293/Human α7 nAChR (displacement of [3H]-A-585539, read-out: HEK293/Human α7 nAChR Mean ± SD Ki) it was 3 ± 1.13 nM; at HEK293/Human α7 nAChR (individual determinations, read-out: HEK293/human α7 nAChR Ki (individual)), 2.2 nM and 3.8 nM; at human 5-HT3A receptors it was 2.5 nM. The IC50 at HEK293/Human 5-HT3A (Ca2+ flux (FLIPR), antagonism of 2 μM 5-HT, read-out: HEK293/Human 5-HT3A Mean ± SD IC50) is 4 ± 2.1 nM; on HEK293/Human 5-HT3A (FLIPR, individual determinations, read-out: Human 5-HT3A IC50 values (individual)), 6 nM and 3 nM and 1 nM and 5 nM. For the same compound, the “Net Charge (Current Area) normalized to 300 µM ACh” value in assay [1] (0.03 µM) is 0.1633 and 0.2064 and 0.1153 and 0.1342; in assay [1] (EVP-6124 series 0.1 µM) it was 0.8405 and 1.081 and 0.8479 and 0.8723; in assay [1] (EVP-6124 series 0.3 µM) it was 1.201 and 1.302 and 1.445 and 1.418; in assay [1] (EVP-6124 series 1 µM), 1.414 and 1.499 and 1.608 and 1.442; in assay [1] (EVP-6124 series 3 µM), 1.22 and 1.197 and 1.304 and 1.07; in assay [1] (EVP-6124 series 10 µM), 0.349 and 0.4055 and 0.3939 and 0.327. Moreover, the “Peak Current normalized to 3 mM ACh” value in assay [1] (0.03 µM) is 0.0231 and 0.03032 and 0.02328 and 0.01316; in assay [1] (EVP-6124 series 0.1 µM), 0.0485 and 0.06704 and 0.0971 and 0.0413; in assay [1] (EVP-6124 series 0.3 µM), 0.1072 and 0.154 and 0.07666 and 0.07157; in assay [1] (EVP-6124 series 1 µM) it was 0.127 and 0.1447 and 0.2547 and 0.1421; in assay [1] (EVP-6124 series 3 µM) it was 0.1877 and 0.2441 and 0.3832 and 0.2558; in assay [1] (EVP-6124 series 10 µM), 0.2438 and 0.2654 and 0.4627 and 0.3034. Moreover, in assay [1] (Human, normalized to 300 μM ACh), the “Mean ± SEM Net Charge Ymax” value is 1.36 ± 0.09. In addition, in assay [1] (Human, normalized to 3 mM ACh), the “Mean ± SEM Peak Current Ymaxobs @ 10 μM” value came out at 0.32 ± 0.05.
